Results published in patent US10485792B2, “Sustained release delivery systems for the prevention and treatment of head and neck cancers” (HADASIT MEDICAL RESEARCH SERVICES & DEVELOPMENT LIMITED, priority 2009, dated 2019).

Tests used:
[1] = Rapamycin stability in solution; type: physicochemical; conditions: known concentration solutions at 37° C. for 24 hours
Experimental: Rapamycin stability was evaluated by sampling known concentration solutions at 37° C. for 24 hours.

Oral Lichen Planus = conditions: cited from earlier work

Rapamycin stability [1]: No stability problems were observed
Structure (SMILES): CO[C@H]1C[C@@H]2CC[C@@H](C)[C@@](O)(O2)C(=O)C(=O)N2CCCC[C@H]2C(=O)O[C@H]([C@H](C)C[C@@H]2CC[C@@H](O)[C@H](OC)C2)CC(=O)[C@H](C)/C=C(\C)[C@@H](O)[C@@H](OC)C(=O)[C@H](C)C[C@H](C)/C=C/C=C/C=C/1C [Rapamycin]
Local side effect after first application (Oral Lichen Planus; direct topical application to the diseased regions): tingling or burning sensations were encountered | Blood levels (Oral Lichen Planus; direct topical application): negligible | Systemic adverse effects (Oral Lichen Planus; direct topical application): no systemic adverse effects were encountered
